The subject of one series is MDA-MB-468 cells. To be noted: in vitro treatment of MDA-MB-468 cells. From the text:
(§1) MDA-MB-468 is a human breast carcinoma cell line that has an increase in the copy number of the EGFR gene and a homozygous deletion of PTEN.

Series [1] concerns MDA-MB-468 human breast adenocarcinoma cells.
Description: as §1

The test system of series [2] is Calu-6 human lung anaplastic carcinoma cells. The series can be described thus: Calu-6 non-small cell lung cancer xenograft model. The class given is in vivo. To be noted: carboplatin 50 mg/kg i.v. q4d, single agent; FIG. 3. How it is done:
On day 0, cells were harvested by trypsinization, and 5×10^6 cells (passage #8, 96% viability) in 0.1 mL ice-cold Hank's balanced salt solution were implanted intradermally in the hind-flank of 5-8 week old female athymic nude mice. A transponder was implanted in each mouse for identification, and animals were monitored daily for clinical symptoms and survival. Body weights were recorded daily.
Calu-6 is a human NSCLC cell line that harbors a heterozygous activating mutation in K-Ras (Q61K).

The test system of series [3] is PC-3 human prostate adenocarcinoma cells. The class given is in vivo. To be noted: taxol 7.5 mg/kg i.v. twice weekly, single agent; FIG. 1.
Description: Female and male athymic nude mice (NCr) 5-8 weeks of age and weighing approximately 20-25 g were used in the following model. Prior to initiation of a study, the animals were allowed to acclimate for a minimum of 48 h. During these studies, animals were provided food and water ad libitum and housed in a room conditioned at 70-75° F. and 60% relative humidity. A12 h light and 12 h dark cycle was maintained with automatic timers. All animals were examined daily for compound-induced or tumor-related deaths.
PC-3 human prostate adenocarcinoma cells were cultured in vitro in DMEM (Mediatech) supplemented with 20% Fetal Bovine Serum (Hyclone), Penicillin-Streptomycin and non-essential amino acids at 37° C. in a humidified 5% CO2 atmosphere. […] A transponder was implanted in each mouse for identification, and animals were monitored daily for clinical symptoms and survival. Body weights were recorded daily.
For subcutaneous or intradermal tumors, the mean tumor weight of each animal in the respective control and treatment groups was determined twice weekly during the study. […] Percent inhibition of tumor growth (TGI) is determined with the following formula: […]
[formula] Tumor size is calculated individually for each tumor to obtain a mean±SEM value for each experimental group. Statistical significance is determined using the 2-tailed Student's t-test (significance defined as P<0.05).
Series [4] relates to A549 human lung carcinoma cells. The series can be described thus: A549 non-small cell lung cancer xenograft model. The class given is in vivo. The method, then:
A transponder was implanted in each mouse for identification, and animals were monitored daily for clinical symptoms and survival. Body weights were recorded daily.
Compound A was tested both as a single agent and in combination with Compound B. The A549 human non-small cell lung carcinoma cell line harbors a homozygous stop mutation in the gene encoding LKB1, and an activating G12S mutation in K-Ras, promoting activation of both PI3K and mTOR. A549 cells also express wild-type EGFR.
As a single agent, Compound B, an inhibitor of EGFR, was orally administered once-daily at 30 mg/kg and Compound A was orally administered either at 30 mg/kg qd or 100 mg/kg q2d. Combination therapies consisted of Compound B with Compound A at 30 mg/kg or 100 mg/kg. Administration of each agent in the combination groups was separated by 6 h.

Series [5] has as its system MCF7 human mammary adenocarcinoma cells. As to the kind of experiment: MCF7 breast cancer xenograft model (Study 1 and Study 2). Format: in vivo. To be noted: Compound B 30 mg/kg qd, single agent. The method, then: On day 0, cells were harvested by trypsinization, and 5×10^6 cells (passage 10 and 95.4% viability for Study 1, passage 9 and 90% viability for Study 2) in 100 μL of a solution made of 50% cold Hanks balanced salt solution with 50% growth factor reduced matrigel (R&D Systems for Study 1 and Becton Dickinson for Study 2) implanted subcutaneously into the hindflank of female nude mice.
Compound A was tested both as a single agent and in combination with Compound B, an EGFR inhibitor, in a breast tumor model. The MCF7 human breast carcinoma cell line harbors a heterozygous, activating mutation in PI3K (PI3KCA/E545K) and expresses wild-type EGFR.
Compound B was administered orally once-daily (qd) at 30 mg/kg, and Compound A was administered once-daily at 30 mg/kg or once every other day (q2d) at 100 mg/kg. Combination therapies consisted of Compound B together with Compound A at 30 mg/kg qd or 100 mg/kg q2d.

[6] abbreviates: Compound B 30 mg/kg qd, single agent.

With `C#Cc1cccc(Nc2ncnc3cc(OCCOC)c(OCCOC)cc23)c1` [erlotinib], the PI3K pathway entry in the series with MDA-MB-468 cells is reported as “fails to downregulate the PI3K pathway”. The tumor growth inhibition entry in series [1] (erlotinib oral 100 mg/kg qd, single agent, FIG. 5) is listed as “significant but incomplete tumor growth inhibition”. The “rate of body weight gain” value in series [1] (mouse, in vivo) was “apparent decrease in their rate of body weight gain”.
Consider `N.N.O=C([O-])C1(C(=O)[O-])CCC1.[Pt+2]` [carboplatin], for which, in series [2], the tumor growth inhibition entry is on record as “Significant tumor growth inhibition”.
Turning to `CC(=O)O[C@H]1C(=O)[C@@]2(C)[C@H]([C@H](OC(=O)c3ccccc3)[C@]3(O)C[C@H](OC(=O)[C@H](O)[C@@H](NC(=O)c4ccccc4)c4ccccc4)C(C)=C1C3(C)C)[C@]1(OC(C)=O)CO[C@@H]1C[C@@H]2O` [taxol, Paclitaxel], in series [3], the tumor growth inhibition entry is on record as “Comparable tumor growth inhibition”.
In the case of `COc1cc2c(Nc3ccc(Cl)c(Cl)c3F)ncnc2cc1OC[C@@H]1C[C@@H]2CN(C)C[C@@H]2C1` [Compound B, N-(3,4-dichloro-2-fluorophenyl)-7-({[(3aR,5r,6aS)-2-methyloctahydrocyclopenta-[c]pyrrol-5-yl]methyl}oxy)-6-(methyloxy)quinazolin-4-amine], in series [4] (setting [6]), the body weight loss is on record as 1.5-6.9%, the dose omission result is on record as “no dose omission” and the tolerability result is “generally well tolerated”. The tumor growth inhibition in series [4] (Compound B oral 30 mg/kg once-daily for 18 days, single agent) came to 80%. In series [4] (single agent administration), the “tolerability (summary)” value is listed as “well tolerated with minimal dose skipping”. Besides, in series [5], the tolerability entry was “generally well tolerated”.

(Values after patent US8481001B2, “Combination therapies comprising quinoxaline inhibitors of P13K-alpha for use in the treatment of cancer” (Exelixis, Inc., priority 2007, dated 2013).)
